From PMC4648803 (Purinergic Signalling, 2015)
Where “and” joins values, the source holds several entries; their conditions need not be identical. Equal entries are not always repeated.

Key:
hA1AR [1] = biological target: T1, hA1AR (Homo sapiens, UniProt P30542); settings: saturation on CHO-hA1AR membranes, M/IS
T1 sequence (P30542 1-326): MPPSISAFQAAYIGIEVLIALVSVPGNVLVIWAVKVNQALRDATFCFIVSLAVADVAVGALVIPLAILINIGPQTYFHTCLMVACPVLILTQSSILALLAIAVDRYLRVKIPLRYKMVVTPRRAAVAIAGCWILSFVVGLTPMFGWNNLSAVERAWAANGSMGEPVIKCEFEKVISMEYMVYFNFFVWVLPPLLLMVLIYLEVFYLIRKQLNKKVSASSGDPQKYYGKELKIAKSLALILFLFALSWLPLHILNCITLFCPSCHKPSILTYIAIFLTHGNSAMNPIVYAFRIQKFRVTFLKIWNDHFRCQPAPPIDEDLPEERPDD
Method: Dilutions were prepared with a HP D300 Digital Dispenser (Tecan Group, Männerdorf, Swiss) from DMSO stocks.

hA1AR [2] = biological target: T1, hA1AR; settings: saturation on hA1AR; cited from earlier work
hA2AAR [3] = biological target: T2, hA2AAR (Homo sapiens, UniProt P29274); assay: MS binding displacement assay (marker ligand ZM-241,385); settings: 3 nM ZM-241,385 marker, read-out: K i ± SEM, MS binding
T2 construct: expressed in transfected cells; host or cells: HEK293 cells stably expressing hA2AAR (membrane preparation); gift from Dr. J. Wang, Biogen/IDEC
T2 sequence (P29274 whole entry): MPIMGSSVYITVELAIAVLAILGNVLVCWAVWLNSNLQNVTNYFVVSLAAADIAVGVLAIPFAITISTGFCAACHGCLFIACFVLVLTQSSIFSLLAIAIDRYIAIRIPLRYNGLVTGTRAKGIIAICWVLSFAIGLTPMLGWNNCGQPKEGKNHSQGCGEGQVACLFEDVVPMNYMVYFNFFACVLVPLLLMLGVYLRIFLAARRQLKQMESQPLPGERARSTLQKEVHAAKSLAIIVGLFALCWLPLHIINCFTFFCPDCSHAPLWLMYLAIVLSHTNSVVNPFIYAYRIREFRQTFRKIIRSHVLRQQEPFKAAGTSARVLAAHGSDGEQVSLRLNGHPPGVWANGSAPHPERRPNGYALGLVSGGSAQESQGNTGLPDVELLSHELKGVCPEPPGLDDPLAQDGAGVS
Method: (§3) Ligand displacement experiments were performed using nine concentrations of competing ligand.

hA2AAR [4] = biological target: T2, hA2AAR; assay: Radioligand binding displacement assay; settings: newly acquired, read-out: K i ± SEM, Radioligand binding
Method: (§1) The reference radioligand binding data were published before by our lab or were acquired as described before.
(§2) For the validation of MS binding assays, radioligand binding data that was published previously by our group was used. In the case that no in-house radioligand binding data was available, the concerning assays were performed following previously established protocols.

hA2AAR [5] = biological target: T2, hA2AAR; assay: MS binding competition association assay (marker ligand ZM-241,385)
hA2AAR [6] = biological target: T2, hA2AAR; assay: Radioligand binding competition association assay; settings: newly acquired
Method: as §1, §2

hA1AR [7] = biological target: T1, hA1AR; assay: MS binding competition association assay (marker ligand DPCPX); design: expressed in transfected cells; host or cells: CHO cells stably expressing hA1AR (membrane preparation); gift from Prof; S. Hill, University of Nottingham; settings: for shape of competition association curve: 6 nM DPCPX, 250 nM competing ligand
Method: . […] Non-specific binding was determined as described under “MS binding displacement assays.”

hA1AR [8] = biological target: T1, hA1AR; design: expressed in transfected cells; host or cells: CHO cells stably expressing hA1AR (membrane preparation); gift from Prof; S. Hill, University of Nottingham; method as in PMID 23093571; settings: competition association, apparent value; cited from earlier work
hA1AR [9] = biological target: T1, hA1AR; assay: biochemical; settings: K i ± SEM, Radioligand binding, overall (one-state) value, newly acquired
Method: as §1, §2

hA1AR [10] = biological target: T1, hA1AR; assay: biochemical; settings: K i ± SEM, MS binding, 6 nM DPCPX marker, overall (one-state) value
Method: as §3

hA1AR [11] = biological target: T1, hA1AR; assay: Radioligand binding competition association assay; design: expressed in transfected cells; host or cells: CHO cells stably expressing hA1AR (membrane preparation); gift from Prof; S. Hill, University of Nottingham; settings: newly acquired
Method: as §1, §2

[12] = competition association with 3 nM ZM-241,385, with internal standard
[13] = competition association with 3 nM ZM-241,385, without internal standard

CCCn1c(=O)c2[nH]c(C3CCCC3)nc2n(CCC)c1=O [DPCPX, 1,3-dipropyl-8-cyclopentyl-xanthine]
B max, MS binding (hA1AR [1]): 17.3 ± 0.3 pmol/mg protein | B max, Radioligand binding (hA1AR [2]): 14 ± 1 pmol/mg protein and 14 ± 1 [29] pmol/mg protein

C#CCn1c(=O)c2c(nc(C=Cc3cccc(OC)c3)n2C)n(CCCO)c1=O [MSX-2, 3-(3-Hydroxypropyl)-7-methyl-1-propargyl-8-(m-methoxystryryl)xanthine]
Ki (hA2AAR [3]): 9 ± 0.3 nM | Ki (hA2AAR [4]): 5.7 ± 0.1 nM | shape of competition association curve (hA2AAR [5]; 3 nM ZM-241,385, 90 nM MSX-2 or 15 nM LUF6632): typical for fast-dissociating ligands | k off ± SEM, MS binding (M/IS) (hA2AAR [5]; [12]): 0.00045 ± 8.3e-05 s⁻¹ | k on ± SEM, MS binding (M/IS) (hA2AAR [5]; [12]): 5.4 ± 0.6 × 10^6 M^−1 min^-1 | k off ± SEM, MS binding (marker) (hA2AAR [5]; [13]): 0.00105 ± 0.000367 s⁻¹ | k on ± SEM, MS binding (marker) (hA2AAR [5]; [13]): 9.3 ± 1.3 × 10^6 M^−1 min^-1 | k off ± SEM, Radioligand binding (hA2AAR [6]): 0.000433 ± 6.7e-05 s⁻¹ | k on ± SEM, Radioligand binding (hA2AAR [6]): 2.4 ± 0.2 × 10^6 M^−1 min^-1

CCCn1c(=O)c2[nH]c(C3CCCC3)nc2n(CCCOC(=O)c2ccc(S(=O)(=O)F)cc2)c1=O [FSCPX]
shape of competition association curve (hA1AR [7]; hA1AR): typical for slowly dissociating ligands | displacement of the marker ligand DPCPX (hA1AR [7]; hA1AR, 250 nM FSCPX, after 120 min): completely | k on ± SEM, MS binding (M/IS) (hA1AR [7]; hA1AR, competition association with 6 nM DPCPX, with internal standard, apparent value for covalently binding FSCPX): 0.7 ± 0.2 × 10^6 M^−1 min^−1 | k on ± SEM, MS binding (marker) (hA1AR [7]; hA1AR, competition association with 6 nM DPCPX, without internal standard, apparent value for FSCPX): 0.7 ± 0.2 × 10^6 M^−1 min^−1 | k on ± SEM, Radioligand binding (hA1AR [8]): 3.7 ± 1.0 × 10^6 [29] M^−1 min^−1

Cn1c(=O)c2[nH]c(C3CCCC3)nc2n(C)c1=O [8-CPT, 8-Cyclopentyltheophylline]
Ki (hA1AR [9]): 31 ± 1 nM | Ki (hA1AR [10]): 43 ± 11 nM | shape of competition association curve (hA1AR [7]; hA1AR): typical for fast-dissociating ligands | koff (hA1AR [7]; read-out: k off ± SEM, MS binding (M/IS) (converted)): 0.0233 s⁻¹ | koff (hA1AR [7]; read-out: k off ± SEM, MS binding (marker) (converted)): 0.02 s⁻¹ | kon (hA1AR [7]; read-out: k on ± SEM, MS binding (M/IS) (converted)): 833000 M⁻¹ s⁻¹ | kon (hA1AR [7]; read-out: k on ± SEM, MS binding (marker) (converted)): 500000 M⁻¹ s⁻¹ | koff (hA1AR [11]; read-out: k off ± SEM, Radioligand binding (converted)): 0.0183 s⁻¹ | kon (hA1AR [11]; read-out: k on ± SEM, Radioligand binding (converted)): 1e+06 M⁻¹ s⁻¹
